Measurements from patent US20110209253A1, “Method for Improving Plant Health” (BASF SE, priority 2008, published 2011).
Read-outs that look alike come from different tables or passages of the source.

Key:
[1] = system: Wheat plants (Triticum aestivum cv. Monopol); assay: Growth-promoting effect on wheat plants after foliar treatment (Example 2); format: in vivo; settings: for Number of tillers: per plant; for activity at 7.81 g/ha / activity at 15.63 g/ha / activity at 31.25 g/ha: Triticum aestivum, 504 h
Method: Wheat plants (Triticum aestivum cv. Monopol) were grown in soil with ten plants per pot (13 cm diameter) under greenhouse conditions. Plants at the 2nd leaf stage were sprayed with an aqueous solution of formulated Dimethyl-carbamic acid 2-methylcarbamoyl-2-[(1-methyl-3-trifluoromethyl-1H-pyrazole-4-carbonyl)-amino]-1-(tetrahydro-pyran-4-yl)-ethyl ester (compound 1). The compound was applied at three different dose rates, i.e. 31.25/15.63/7.81 g ai/ha and the spray volume was 750 l/ha. Ten replicate pots with ten plants each were used per treatment. After three weeks (21 days) plants were harvested and growth parameters were determined. The recorded parameters were fresh weight, dry weigh, leaf area (all per pot) and number of tillers (per plant). Mean values of results, standard deviation (SD) and percentage to control were calculated.

[2] = system: Wheat plants (Triticum aestivum cv. Cubus); assay: Growth-promoting effect on wheat plants after root treatment (hydroponic culture); format: in vivo; parameters: Shoot-FW ± SE / Root-FW ± SE: unit not given here; settings: for Root-FW ± SE / Shoot-FW ± SE / activity at 1 µM / activity at 3 µM: seven days after treatment; for activity at 1 µM / activity at 3 µM: Triticum aestivum, 168 h
Method: Wheat plants (Triticum aestivum cv. Cubus) at the 2nd leaf stage were cultivated in 320 mL glass vessels with 300 mL half-strength Linsmaier-Skoog medium (Physiologia Plantarum 18: 100-127, 1964). The solution was aerated throughout experiment. The vessels were incubated randomized in a climate chamber under 16:8 h light:dark cycles (photon flux density 400 μmol m-2 s-1, 400-750 nm, Osram powerstar HQI-R 250W/NDL and Osram krypton 100W lamps) at 22° C. (light):20° C. (dark) and 75% relative humidity (3 plants per vessel, 9 replicate vessels). After 2 days of adaptation, plants were treated with Dimethyl-carbamic acid 2-methylcarbamoyl-2-[(1-methyl-3-trifluoromethyl-1H-pyrazole-4-carbonyl)-amino]-1-(tetrahydro-pyran-4-yl)-ethyl ester (compound 1) which was added to the medium in dimethyl sulfoxide (DMSO) solution (0.1% final concentration of DMSO). Controls received corresponding quantity of DMSO alone, with no adverse effect on the growth of the plants. Seven days after treatment, fresh weights (FW) of shoot and root, as the growth parameters, were measured and mean values±standard error (SE) of 27 plant parts was calculated.

[3] = 7.81 g/ha foliar spray, 21 days, per pot
[4] = 15.63 g/ha foliar spray, 21 days, per pot
[5] = 31.25 g/ha foliar spray, 21 days, per pot

## CNC(=O)C(NC(=O)c1cn(C)nc1C(F)(F)F)C(OC(=O)N(C)C)C1CCOCC1 (stereo not shown) [Compound 1, Dimethyl-carbamic acid 2-methylcarbamoyl-2-[(1-methyl-3-trifluoromethyl-1H-pyrazole-4-carbonyl)-amino]-1-(tetrahydro-pyran-4-yl)-ethyl ester]
[1]; 7.81 g/ha foliar spray, 21 days
  Number of tillers: 2.9
[1]; [3]
  Leaf area: 1121.1 cm^2
  Shoot DW: 4.4 g
  Shoot FW: 43.9 g
[1]; 15.63 g/ha foliar spray, 21 days
  Number of tillers: 2.8
[1]; [4]
  Leaf area: 1046.3 cm^2
  Shoot DW: 4.0 g
  Shoot FW: 40.5 g
[1]; 31.25 g/ha foliar spray, 21 days
  Number of tillers: 2.8
[1]; [5]
  Leaf area: 1060.3 cm^2
  Shoot DW: 4.2 g
  Shoot FW: 42.8 g
[1]; 7.81 g/ha foliar spray, 21 days, read-out: Leaf area % of control
  activity at 7.81 g/ha: 126%
[1]; 7.81 g/ha foliar spray, 21 days, read-out: Number of tillers % of control
  activity at 7.81 g/ha: 118%
[1]; 7.81 g/ha foliar spray, 21 days, read-out: Shoot DW % of control
  activity at 7.81 g/ha: 127%
[1]; 7.81 g/ha foliar spray, 21 days, read-out: Shoot FW % of control
  activity at 7.81 g/ha: 126%
[1]; 15.63 g/ha foliar spray, 21 days, read-out: Leaf area % of control
  activity at 15.63 g/ha: 118%
[1]; 15.63 g/ha foliar spray, 21 days, read-out: Number of tillers % of control
  activity at 15.63 g/ha: 114%
[1]; 15.63 g/ha foliar spray, 21 days, read-out: Shoot DW % of control
  activity at 15.63 g/ha: 116%
[1]; 15.63 g/ha foliar spray, 21 days, read-out: Shoot FW % of control
  activity at 15.63 g/ha: 116%
[1]; 31.25 g/ha foliar spray, 21 days, read-out: Leaf area % of control
  activity at 31.25 g/ha: 120%
[1]; 31.25 g/ha foliar spray, 21 days, read-out: Number of tillers % of control
  activity at 31.25 g/ha: 114%
[1]; 31.25 g/ha foliar spray, 21 days, read-out: Shoot DW % of control
  activity at 31.25 g/ha: 122%
[1]; 31.25 g/ha foliar spray, 21 days, read-out: Shoot FW % of control
  activity at 31.25 g/ha: 123%
[1]; by lowering the dose rate
  growth promoting (yield increasing) effect, dose response: more pronounced
[1]; foliar treatment
  shoot tillering: increased
[1]; foliar treatment, 7.81-31.25 g/ha
  increase in fresh and dry weight related to control: up to 26%
[1]; foliar treatment, lowest dose rate gave the highest effect
  Leaf area: increased
[2]; Experiment 1, 1 μM in medium
  Root-FW ± SE: 0.403 ± 0.015
  Shoot-FW ± SE: 0.747 ± 0.017
[2]; Experiment 1, 3 μM in medium
  Root-FW ± SE: 0.382 ± 0.013
  Shoot-FW ± SE: 0.733 ± 0.019
[2]; Experiment 2, 1 μM in medium
  Root-FW ± SE: 0.342 ± 0.010
  Shoot-FW ± SE: 0.736 ± 0.024
[2]; Experiment 2, 3 μM in medium
  Root-FW ± SE: 0.335 ± 0.012
  Shoot-FW ± SE: 0.738 ± 0.021
[2]; Experiment 1, 1 μM in medium, read-out: Root-FW % of control
  activity at 1 µM: 113%
[2]; Experiment 1, 1 μM in medium, read-out: Shoot-FW % of control
  activity at 1 µM: 115%
[2]; Experiment 1, 3 μM in medium, read-out: Root-FW % of control
  activity at 3 µM: 107%
[2]; Experiment 1, 3 μM in medium, read-out: Shoot-FW % of control
  activity at 3 µM: 112%
[2]; Experiment 2, 1 μM in medium, read-out: Root-FW % of control
  activity at 1 µM: 105%
[2]; Experiment 2, 1 μM in medium, read-out: Shoot-FW % of control
  activity at 1 µM: 115%
[2]; Experiment 2, 3 μM in medium, read-out: Root-FW % of control
  activity at 3 µM: 103%
[2]; Experiment 2, 3 μM in medium, read-out: Shoot-FW % of control
  activity at 3 µM: 115%
[2]; root treatment
  shoot tillering and adventitious root growth: promoted
[2]; root treatment, 1 and 3 μM, two experiments
  stimulation of shoot and root growth relative to controls: up to 15%
